Reference: the NIST ThermoML archive (doi:10.1016/j.jct.2015.07.014)

Experiment: xn = mol fraction of the nth substance listed
Details: Fluid (supercritical or subcritical phases), Buoyancy - hydrostatic balance with magnetic suspension - one sinker

N#N [nitrogen] + O=C=O
mass density [kg/m3]
Details	x1 = 0.95	x1 = 0.99
298.11 K, 30854 kPa	318.784	–
298.15 K, 30889 kPa	–	306.308
298.18 K, 10974 kPa	128.536	–
298.18 K, 26965 kPa	–	276.485
298.18 K, 28960 kPa	304.08	291.991
298.19 K, 10975 kPa	–	124.2
298.19 K, 12974 kPa	151.108	–
298.19 K, 12977 kPa	–	145.801
298.19 K, 14973 kPa	173.056	–
298.19 K, 14975 kPa	–	166.746
298.19 K, 16968 kPa	194.247	–
298.19 K, 16973 kPa	–	186.99
298.19 K, 18971 kPa	214.733	206.482
298.19 K, 20971 kPa	–	225.196
298.19 K, 20972 kPa	234.34	–
298.19 K, 22968 kPa	253.055	–
298.19 K, 22969 kPa	–	243.092
298.19 K, 24966 kPa	270.906	–
298.19 K, 24967 kPa	–	260.186
298.19 K, 26964 kPa	287.919	–
323.18 K, 10979 kPa	116.684	–
323.18 K, 14973 kPa	156.725	–
323.18 K, 28962 kPa	–	266.975
323.18 K, 30957 kPa	291.768	280.954
323.19 K, 12977 kPa	136.963	–
323.19 K, 14974 kPa	–	151.425
323.19 K, 20974 kPa	212.443	–
323.19 K, 22968 kPa	229.628	–
323.19 K, 24967 kPa	246.174	–
323.19 K, 24968 kPa	–	237.145
323.19 K, 26966 kPa	–	252.374
323.19 K, 28961 kPa	277.225	–
323.2 K, 12978 kPa	–	132.477
323.2 K, 16971 kPa	175.903	–
323.2 K, 16973 kPa	–	169.822
323.2 K, 18972 kPa	194.494	–
323.2 K, 18975 kPa	–	187.629
323.2 K, 20974 kPa	–	204.784
323.2 K, 22971 kPa	–	221.285
323.2 K, 26964 kPa	262.031	–
323.21 K, 10980 kPa	–	112.998
348.15 K, 14974 kPa	143.613	–
348.16 K, 12976 kPa	125.56	–
348.16 K, 26965 kPa	–	232.594
348.16 K, 28963 kPa	–	246.335
348.17 K, 10975 kPa	107.02	103.828
348.18 K, 12974 kPa	–	121.664
348.18 K, 20972 kPa	–	188.207
348.18 K, 24966 kPa	–	218.313
348.18 K, 30959 kPa	–	259.551
348.19 K, 16972 kPa	161.157	–
348.19 K, 18968 kPa	–	172.299
348.19 K, 30958 kPa	268.893	–
348.2 K, 14978 kPa	–	139.081
348.2 K, 22973 kPa	–	203.544
348.2 K, 26965 kPa	240.883	–
348.21 K, 16969 kPa	–	155.902
348.21 K, 22970 kPa	210.667	–
348.21 K, 24968 kPa	226.054	–
348.22 K, 18976 kPa	178.236	–
348.23 K, 20969 kPa	194.689	–
348.24 K, 28961 kPa	255.123	–
373.11 K, 14975 kPa	132.811	–
373.14 K, 10975 kPa	99.052	–
373.14 K, 10978 kPa	–	96.257
373.14 K, 24968 kPa	–	202.615
373.14 K, 26966 kPa	–	216.025
373.16 K, 20970 kPa	180.142	–
373.16 K, 28962 kPa	–	228.969
373.17 K, 12975 kPa	116.113	–
373.17 K, 12978 kPa	–	112.737
373.17 K, 30957 kPa	249.734	–
373.18 K, 14973 kPa	–	128.781
373.18 K, 16969 kPa	148.99	–
373.19 K, 18968 kPa	164.767	–
373.19 K, 22970 kPa	194.991	–
373.19 K, 24968 kPa	209.378	–
373.19 K, 26966 kPa	223.295	–
373.19 K, 30958 kPa	–	241.48
373.2 K, 16976 kPa	–	144.455
373.2 K, 18972 kPa	–	159.653
373.2 K, 22969 kPa	–	188.731
373.2 K, 28961 kPa	236.723	–
373.21 K, 20974 kPa	–	174.438
398.12 K, 10979 kPa	92.339	–
398.15 K, 16976 kPa	–	134.736
398.17 K, 10981 kPa	–	89.797
398.17 K, 26965 kPa	–	201.89
398.17 K, 30957 kPa	–	226.029
398.17 K, 30958 kPa	233.41	–
398.18 K, 28962 kPa	221.089	–
398.18 K, 28963 kPa	–	214.146
398.19 K, 14974 kPa	–	120.089
398.19 K, 20968 kPa	–	162.734
398.2 K, 12973 kPa	108.135	–
398.2 K, 14975 kPa	123.655	–
398.2 K, 18973 kPa	–	148.923
398.2 K, 22966 kPa	–	176.162
398.2 K, 24970 kPa	–	189.239
398.21 K, 18973 kPa	153.504	–
398.21 K, 22970 kPa	181.754	–
398.21 K, 24969 kPa	195.274	–
398.21 K, 26967 kPa	208.381	–
398.22 K, 12974 kPa	–	105.084
398.22 K, 20969 kPa	167.809	–
398.23 K, 16974 kPa	138.767	–
423.11 K, 14972 kPa	–	112.628
423.13 K, 24967 kPa	183.194	–
423.13 K, 26965 kPa	195.591	–
423.13 K, 28962 kPa	207.636	–
423.13 K, 30956 kPa	219.326	–
423.14 K, 22965 kPa	170.413	–
423.16 K, 16970 kPa	–	126.322
423.16 K, 18970 kPa	143.837	–
423.16 K, 20971 kPa	157.318	–
423.17 K, 12979 kPa	–	98.597
423.17 K, 18968 kPa	–	139.677
423.18 K, 10978 kPa	86.517	–
423.18 K, 10979 kPa	–	84.203
423.18 K, 12971 kPa	101.311	–
423.18 K, 14973 kPa	115.841	–
423.18 K, 16967 kPa	129.977	–
423.18 K, 20972 kPa	–	152.731
423.18 K, 30957 kPa	–	212.642
423.19 K, 22973 kPa	–	165.419
423.21 K, 24968 kPa	–	177.709
423.21 K, 28961 kPa	–	201.322
423.22 K, 26966 kPa	–	189.691
